What was measured:
SM1 tumors = assay: Volumetric tumor growth, SM1 melanoma in C57BL/6 mice; type: in vivo, mouse; settings: SM1 model
Description: All animals were housed at the Vincent A. Stabile Research building animal facility at H. Lee Moffitt Cancer Center & Research Institute, which is fully accredited by the Association for Assessment and Accreditation of Laboratory Animal Care International (AAALAC, #434), and are managed in accordance with the Guide for the Care and Use of Laboratory Animals (“The Guide”), the Animal Welfare Regulations Title 9 Code of Federal Regulations Subchapter A, “Animal Welfare”, Parts 1-3 (AWR), the Public Health Service Policy on Humane Care and Use of Laboratory Animals (PHS Policy), and by the USF Institutional Animal Care and Use Committee's Principles and Procedures of Animal Care and Use (IACUC Principles). The experiments and protocols detailed in this study received institutional approval by the Moffitt IACUC (RIS00001625). Four-to-six-week-old female C3H/HeN and male C57BL6 mice were purchased from Charles Rivers Laboratories for the indicated experiments. Four-to-six-week-old male NSG mice from the Lau laboratory breeding colony were used for the indicated experiments. Power calculations were used to determine mouse cohort sizes to detect significant changes in tumor sizes. […] Mouse tumor volumes were measured using length, width and depth divided by 2. […]

PD-L1 = assay: Flow cytometric assessment of cell surface PD-L1, mouse melanoma cells (SW1, SM1); type: cell-based
Description: Indicated cells were treated for 72 h with DMSO, 250 μM fucosyltransferase inhibitor (FUTi) (Millipore Sigma (St. Louis, MO)), or 250 μM of L-fucose (Biosynth (Oak Terrace, IL)). After 72 h, cells were stained with 0.1 μM PKH26 (Millipore Sigma (St. Louis, MO)) prior to fixation in 4% formaldehyde solution. The cells were stained with anti-HLA-DRB1 and fluorescein AAL, or anti-human or anti-mouse PD-L1 overnight. The following day the cells were washed 3 times prior to adding AlexaFluor 594 donkey anti-rabbit. Cells were washed 3 times and then subject to flow cytometric analyses using a FACSCalibur (BD Biosciences (San Jose, CA)). Samples were analyzed using FlowJo analysis software (BD Biosciences (San Jose, CA)). Median values of DRB1 and AAL were normalized to PKH26 values and statistical analysis was performed using GraphPad Prism.

CD209 = assay: DC broad panel analysis and signaling array on phosphorylated proteins; type: cell-based
Description: To better understand the phenotype of DC subsets after L-fucose treatment, we preformed broad panel analysis to highlight unique subsets of DCs, including markers of activation, cross presentation and known signaling mechanisms. […] To determine if this increased expression was related to any other signaling changes we performed a signaling array on key phosphorylated proteins on activated DCs after L-fucose treatment. […] From this, we concluded that L-fucose increases expression of CD209 and modulates downstream signaling paths

moDCs = assay: moDC cytokine production, qPCR and immunoblot of signaling pathways; type: cell-based
Description: To determine if the changes in DC polarization and CD209 expression were associated with differential signaling changes in moDCs we analyzed known suppressive and stimulatory pathways by (FIG. 25A) cytokine production and (FIG. 25B) qPCR. […] (C) To elucidate the mechanism by which L-fucose was repressing immunosuppression in moDCs we preformed immunoblot analysis of several key signaling pathways in moDC activation of cells treated +/−L-fucose and +/−maturation via LPS. Additionally, we identified transcription factors that may play a role in altering the signaling and cytokine profiles of moDC to further validate the changes in immunomodulatory activity we observe.

For `C[C@H](O)[C@@H](O)[C@@H](O)[C@H](O)C=O` [L-fucose], the “tumor suppression, single agent” value (SM1 tumors) was “less tumor suppressive than anti-PD1 alone”, the “tumor suppression in combination with anti-PD1” value (SM1 tumors; L-fuc in combination with anti-PD1) was “augmented durable suppression” and the “cell surface levels of PD-L1” value (PD-L1) was “does not alter”. For the same compound, the CD209 expression (CD209; DC subsets after L-fucose treatment) was “increase”, the “AKT and PARP (signaling array on phosphorylated proteins)” value (CD209; activated DCs) was “significant decreases” and the “immunosuppressive signature of DCs” value (moDCs; cytokine production, qPCR) was “decreased immunosuppressive signature”. The “iNOS and p65 activation in moDC” value (moDCs; immunoblot, +/- LPS maturation) was “decreased iNOS and p65 activation”.

From US20260108547A1, “LEVERAGING L-FUCOSE-MEDIATED SIGNALING TO INDUCE MONOCYTE-DERIVED DENDRITIC CELL POLARIZATION” (H. LEE MOFFITT CANCER CENTER AND RESEARCH INSTITUTE, INC., priority 2022, published 2026)
